Key:
GPR3 = molecular target: T1, GPR3 (Homo sapiens, UniProt P46089); assay: GPR3 antagonist functional cAMP assay (LANCE Ultra cAMP TR-FRET, CHO cells stably expressing GPR3); type: cell-based; conditions: procedure of Example 24
T1 construct: expressed in transfected cells; host or cells: CHO cells
Summary of the method: (§1)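 We measure cAMP by TR-FRET (665 nm) in cells held in glucose-containing Krebs-Ringer buffer with BSA and a PDE inhibitor, after a 45 min, 37 °C compound incubation. IC50s derive from a four-parameter logistic fit.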

GPR6 = molecular target: T2, GPR6 (Homo sapiens, UniProt P46095); assay: GPR6 antagonist functional cAMP assay (LANCE Ultra cAMP TR-FRET, CHO cells stably expressing GPR6); type: cell-based; conditions: procedure of Example 24
T2 construct: expressed in transfected cells; host or cells: CHO cells
T2 sequence (P46095 whole entry): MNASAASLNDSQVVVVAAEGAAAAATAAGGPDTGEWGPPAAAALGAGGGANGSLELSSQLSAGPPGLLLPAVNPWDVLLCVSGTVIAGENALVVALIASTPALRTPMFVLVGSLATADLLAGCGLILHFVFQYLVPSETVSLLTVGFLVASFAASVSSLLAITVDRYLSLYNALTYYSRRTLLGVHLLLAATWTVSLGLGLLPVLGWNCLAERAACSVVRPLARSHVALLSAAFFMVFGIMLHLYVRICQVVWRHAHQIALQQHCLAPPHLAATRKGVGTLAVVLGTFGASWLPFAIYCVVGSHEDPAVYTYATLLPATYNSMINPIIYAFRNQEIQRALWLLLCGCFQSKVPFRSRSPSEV
Summary of the method: as §1

T1 sequence (P46089 whole entry, species assumed): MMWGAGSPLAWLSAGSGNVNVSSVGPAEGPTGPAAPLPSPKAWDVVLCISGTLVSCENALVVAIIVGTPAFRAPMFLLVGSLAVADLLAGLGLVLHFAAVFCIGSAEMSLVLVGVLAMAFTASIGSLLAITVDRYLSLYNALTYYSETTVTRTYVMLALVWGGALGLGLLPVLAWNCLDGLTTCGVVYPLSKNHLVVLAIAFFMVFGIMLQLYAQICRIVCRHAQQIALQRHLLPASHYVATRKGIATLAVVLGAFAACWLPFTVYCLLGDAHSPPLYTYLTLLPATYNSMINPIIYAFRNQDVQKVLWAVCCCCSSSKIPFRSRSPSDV

| SMILES | IC50 (GPR3) | IC50 (GPR6) |
| --- | --- | --- |
| CC(=O)N1CCc2nc(N3CCN(Cc4ccccc4)CC3)c(-c3cnn(C)c3)nc2C1 [Compound 280, 1-[2-(4-benzylpiperazin-1-yl)-3-(1-methyl-1H-pyrazol-4-yl)-5H,6H,7H,8H-pyrido[3,4-b]pyrazin-6-yl]ethan-1-one] | 1000 to 30000 nM | 1000 to 30000 nM |
| CC(=O)N1CCc2nc(N3CCN(Cc4cc(Cl)ccc4Cl)CC3)c(-c3cnn(C)c3)nc2C1 [Compound 281, 1-(2-{4-[(2,5-dichlorophenyl)methyl]piperazin-1-yl}-3-(1-methyl-1H-pyrazol-4-yl)-5H,6H,7H,8H-pyrido[3,4-b]pyrazin-6-yl)ethan-1-one] | 1000 to 30000 nM | < 100 nM |
| COc1ccc(C(=O)N2CCN(c3nc4c(nc3-c3cnn(C)c3)CN(C(C)=O)CC4)CC2)cc1F [Compound 282, 1-{2-[4-(3-fluoro-4-methoxybenzoyl)piperazin-1-yl]-3-(1-methyl-1H-pyrazol-4-yl)-5H,6H,7H,8H-pyrido[3,4-b]pyrazin-6-yl}ethan-1-one] | ≥ 30000 nM | ≥ 30000 nM |
| COc1ccc(C(=O)N2CCN(c3nc4c(nc3-c3cnn(C)c3)CN(C(C)=O)CC4)CC2)cc1 [Compound 283, 1-{2-[4-(4-methoxybenzoyl)piperazin-1-yl]-3-(1-methyl-1H-pyrazol-4-yl)-5H,6H,7H,8H-pyrido[3,4-b]pyrazin-6-yl}ethan-1-one] | 1000 to 30000 nM | 1000 to 30000 nM |
| COc1ccc(C(=O)N2CCN(c3nc4c(nc3-c3cnn(C)c3)CN(C(C)=O)CC4)CC2)nc1 [Compound 284, 1-{2-[4-(5-methoxypyridine-2-carbonyl)piperazin-1-yl]-3-(1-methyl-1H-pyrazol-4-yl)-5H,6H,7H,8H-pyrido[3,4-b]pyrazin-6-yl}ethan-1-one] | 1000 to 30000 nM | 1000 to 30000 nM |
| CC(=O)N1CCc2nc(N3CCN(C(=O)c4cc(F)cc(F)c4)CC3)c(-c3cnn(C)c3)nc2C1 [Compound 285, 1-{2-[4-(3,5-difluorobenzoyl)piperazin-1-yl]-3-(1-methyl-1H-pyrazol-4-yl)-5H,6H,7H,8H-pyrido[3,4-b]pyrazin-6-yl}ethan-1-one] | 1000 to 30000 nM | ≥ 30000 nM |
| CC(=O)N1CCc2nc(N3CCN(C(=O)c4ccc(F)cc4C#N)CC3)c(-c3cnn(C)c3)nc2C1 [Compound 286, 2-{4-[6-acetyl-3-(1-methyl-1H-pyrazol-4-yl)-5H,6H,7H,8H-pyrido[3,4-b]pyrazin-2-yl]piperazine-1-carbonyl}-5-fluorobenzonitrile] | ≥ 30000 nM | 1000 to 30000 nM |
| COc1ccc(C(=O)N2CCN(c3nc4c(nc3-c3cnn(C)c3)CN(C(C)=O)CC4)CC2)c(OC)c1 [Compound 287, 1-{2-[4-(2,4-dimethoxybenzoyl)piperazin-1-yl]-3-(1-methyl-1H-pyrazol-4-yl)-5H,6H,7H,8H-pyrido[3,4-b]pyrazin-6-yl}ethan-1-one] | ≥ 30000 nM | ≥ 30000 nM |
| CCn1cc(-c2nc3cnccc3nc2N2CCC(Oc3cc(Cl)ccc3Cl)CC2)cn1 [Compound 288, 4-(2,5-dichlorophenoxy)-1-[3-(1-ethyl-1H-pyrazol-4-yl)pyrido[3,4-b]pyrazin-2-yl]piperidine] | 1000 to 30000 nM | < 100 nM |
| Cn1cc(-c2nc3cnc(Cl)cc3nc2N2CCC(Oc3ccc(F)cc3F)CC2)cn1 [Compound 289, 7-chloro-2-(4-(2,4-difluorophenoxy)piperidin-1-yl)-3-(1-methyl-1H-pyrazol-4-yl)pyrido[3,4-b]pyrazine] | 1000 to 30000 nM | 1000 to 30000 nM |
| CCn1cc(-c2nc3c(nc2N2CCC(Oc4ccc(F)cc4F)CC2)CCN(C(=O)C2CCCN2)C3)cn1 (stereo not shown) [Compound 291, 4-(2,4-difluorophenoxy)-1-[3-(1-ethyl-1H-pyrazol-4-yl)-6-(pyrrolidine-2-carbonyl)-5H,6H,7H,8H-pyrido[3,4-b]pyrazin-2-yl]piperidine] | 1000 to 30000 nM | < 100 nM |
| Cn1cc(-c2nc3cnc(C#N)cc3nc2N2CCC(Oc3ccc(F)cc3F)CC2)cn1 [Compound 293, 2-[4-(2,4-difluorophenoxy)piperidin-1-yl]-3-(1-methyl-1H-pyrazol-4-yl)pyrido[3,4-b]pyrazine-7-carbonitrile] | 1000 to 30000 nM | 1000 to 30000 nM |
| CCn1cc(-c2nc3cnc(N)cc3nc2N2CCC(Oc3ccc(F)cc3F)CC2)cn1 [Compound 294, 2-[4-(2,4-difluorophenoxy)piperidin-1-yl]-3-(1-ethyl-1H-pyrazol-4-yl)pyrido[3,4-b]pyrazin-7-amine] | 1000 to 30000 nM | < 100 nM |
| CCn1cc(-c2nc3cnccc3nc2N2CCC(Oc3cc(Cl)ccc3F)CC2)cn1 [Compound 295, 4-(5-chloro-2-fluorophenoxy)-1-[3-(1-ethyl-1H-pyrazol-4-yl)pyrido[3,4-b]pyrazin-2-yl]piperidine] | 1000 to 30000 nM | < 100 nM |
| CC(=O)Nc1cc2nc(N3CCC(Oc4ccc(F)cc4F)CC3)c(-c3cnn(C)c3)nc2cn1 [Compound 296, N-{2-[4-(2,4-difluorophenoxy)piperidin-1-yl]-3-(1-methyl-1H-pyrazol-4-yl)pyrido[3,4-b]pyrazin-7-yl}acetamide] | 1000 to 30000 nM | 1000 to 30000 nM |
| CC(=O)Nc1cc2nc(N3CCN(Cc4ccc(F)cc4F)CC3)c(-c3cnn(C)c3)nc2cn1 [Compound 297, N-(2-{4-[(2,4-difluorophenyl)methyl]piperazin-1-yl}-3-(1-methyl-1H-pyrazol-4-yl)pyrido[3,4-b]pyrazin-7-yl)acetamide] | 1000 to 30000 nM | 1000 to 30000 nM |
| CC(C)n1cc(-c2nc3cnc(C(O)C(C)(C)O)cc3nc2N2CCN(Cc3ccc(F)cc3F)CC2)cn1 (stereo not shown) [Compound 298, 1-(2-{4-[(2,4-difluorophenyl)methyl]piperazin-1-yl}-3-[1-(propan-2-yl)-1H-pyrazol-4-yl]pyrido[3,4-b]pyrazin-7-yl)-2-methylpropane-1,2-diol] | 1000 to 30000 nM | 100 to 1000 nM |
| CCOC(=O)N1CCc2nc(N3CCC(Oc4ccc(F)cc4F)CC3)c(-c3cnn(CC)c3)nc2C1 [Compound 299, ethyl 2-[4-(2,4-difluorophenoxy)piperidin-1-yl]-3-(1-ethyl-1H-pyrazol-4-yl)-5H,6H,7H,8H-pyrido[3,4-b]pyrazine-6-carboxylate] | 1000 to 30000 nM | < 100 nM |
| CCn1cc(-c2nc3c(nc2N2CCC(Oc4ccc(F)cc4F)CC2)CCN(C(=O)N(C)C)C3)cn1 [Compound 300, 2-[4-(2,4-difluorophenoxy)piperidin-1-yl]-3-(1-ethyl-1H-pyrazol-4-yl)-N,N-dimethyl-5H,6H,7H,8H-pyrido[3,4-b]pyrazine-6-carboxamide] | 1000 to 30000 nM | < 100 nM |
| Fc1ccc(OC2CC=C(c3nc4ccncc4nc3-c3ncco3)CC2)c(F)c1 (stereo not shown) [Compound 301, 2-{2-[4-(2,4-difluorophenoxy)cyclohex-1-en-1-yl]pyrido[3,4-b]pyrazin-3-yl}-1,3-oxazole] | 1000 to 30000 nM | 1000 to 30000 nM |
| CC(=O)N1CCc2nc(C3CCC(Oc4ccc(F)cc4F)CC3)c(-c3ncco3)nc2C1 (stereo not shown) [Compound 302, 1-{2-[4-(2,4-difluorophenoxy)cyclohexyl]-3-(1,3-oxazol-2-yl)-5H,6H,7H,8H-pyrido[3,4-b]pyrazin-6-yl}ethan-1-one] | 1000 to 30000 nM | 1000 to 30000 nM |
| CC(=O)N1CCc2nc(C3=CCC(Oc4ccc(F)cc4F)CC3)c(-c3ncco3)nc2C1 (stereo not shown) [Compound 303, 1-{2-[4-(2,4-difluorophenoxy)cyclohex-1-en-1-yl]-3-(1,3-oxazol-2-yl)-5H,6H,7H,8H-pyrido[3,4-b]pyrazin-6-yl}ethan-1-one] | ≥ 30000 nM | ≥ 30000 nM |
| Fc1ccc(OC2CC=C(c3nc4cnccc4nc3-c3ncco3)CC2)c(F)c1 (stereo not shown) [Compound 304, 2-{3-[4-(2,4-difluorophenoxy)cyclohex-1-en-1-yl]pyrido[3,4-b]pyrazin-2-yl}-1,3-oxazole] | ≥ 30000 nM | 1000 to 30000 nM |
| CCn1cc(-c2nc3c(nc2N2CCC(Oc4ccc(F)cc4F)CC2)CCN(C[C@H](O)CO)C3)cn1 [Compound 305, (2S)-3-{2-[4-(2,4-difluorophenoxy)piperidin-1-yl]-3-(1-ethyl-1H-pyrazol-4-yl)-5H,6H,7H,8H-pyrido[3,4-b]pyrazin-6-yl}propane-1,2-diol] | 1000 to 30000 nM | 100 to 1000 nM |
| CC(=O)N1CCc2nc(N3CCC(Oc4ccc(F)cc4F)CC3)c(C3=CCOC3)nc2C1 [Compound 306, 1-{2-[4-(2,4-difluorophenoxy)piperidin-1-yl]-3-(2,5-dihydrofuran-3-yl)-5H,6H,7H,8H-pyrido[3,4-b]pyrazin-6-yl}ethan-1-one] | 1000 to 30000 nM | 100 to 1000 nM |
| CCn1cc(-c2nc3cnc(C(O)C(C)(C)O)cc3nc2N2CCC(Oc3ccc(F)cc3F)CC2)cn1 (stereo not shown) [Compound 307, 1-{2-[4-(2,4-difluorophenoxy)piperidin-1-yl]-3-(1-ethyl-1H-pyrazol-4-yl)pyrido[3,4-b]pyrazin-7-yl}-2-methylpropane-1,2-diol] | 1000 to 30000 nM | 100 to 1000 nM |
| COc1nc(-c2nc3c(nc2N2CCC(Oc4ccc(F)cc4F)CC2)CCN(C(C)=O)C3)cnc1Cl [Compound 308] | 1000 to 30000 nM | < 100 nM |
| Cn1cc(-c2nc3cnc(C(O)CN)cc3nc2N2CCC(Oc3ccc(F)cc3F)CC2)cn1 (stereo not shown) [Compound 309, 2-amino-1-(2-(4-(2,4-difluorophenoxy)piperidin-1-yl)-3-(1-methyl-1H-pyrazol-4-yl)pyrido[3,4-b]pyrazin-7-yl)ethan-1-ol] | 1000 to 30000 nM | 100 to 1000 nM |
| C=CC(=O)N1CCc2nc(N3CCC(Oc4ccc(F)cc4F)CC3)c(-c3cnn(CC)c3)nc2C1 [Compound 310, 1-{2-[4-(2,4-difluorophenoxy)piperidin-1-yl]-3-(1-ethyl-1H-pyrazol-4-yl)-5H,6H,7H,8H-pyrido[3,4-b]pyrazin-6-yl}prop-2-en-1-one] | 1000 to 30000 nM | < 100 nM |

— US20260042755A1, “GPR6 INVERSE AGONISTS” (MapLight Therapeutics, Inc., priority 2022, published 2026)
